{"source": "patent US20260191807A1", "about": "“COMPOSITIONS AND METHODS FOR TREATMENT OF PRADER-WILLI SYNDROME” (ERX Pharmaceuticals Inc., priority 2022, published 2026)", "key": {"[1]": {"tested_on": "C57BL/6 DIO mice", "test": "Body weights of C57BL/6 DIO mice during daily treatment", "type": "in vivo", "settings": "Celastrol 0.2 mg/kg IP daily; for Body weights (expressed as a percentage of day-1 weight) / Body weights (in grams): Belaronib 0.3 mg/kg SC, mean"}, "[2]": {"tested_on": "C57BL/6-Magel2 mice", "test": "Body weights of C57BL/6 Magel2 mice during daily treatment", "type": "in vivo", "settings": "0.2 mg/kg IP QD, mean", "protocol": "In the study disclosed herein, celastrol at was administered intraperitoneally using a 30G needle at a dose of 0.2 mg/kg to five female Magel2 homozygous mice (−/−) and four male mice heterozygous for Magel2 (−/+). In addition, vehicle was administered to four male mice heterozygous for Magel2 (−/+) for 21 days.\nC57BL/6-Magel2 mice were bred for purpose from cryo recovery by Jackson Labs (Bar Harbor, ME) and arrived at the testing facility at age 8 weeks.\nAll treatment volumes were 10 mL/kg. Utilizing the art-recognized nestlet shredding mouse model, the dose was administered by gavage (as capsule dosing is challenging in mice). Celastrol and the vehicle control were administered intraperitoneally using a 30G needle. All treatments were administered daily in the afternoon at 17:00 h, 1 hour before dark cycle from Day 1 to end of dosing.\nCelastrol was dissolved in 50% Solutol/50% DMAC. The resulting stock solution aliquoted and stored at −80° C. until treatment day. On the day of treatment an aliquot of the stock solution was thawed and diluted 1:20 with saline to obtain the desired dosing solution strength in 5%\nMouse body weights were recorded from an Ohaus model CS 200 balance. Mice were weighed daily on Day 1 to Day 21. Body weight changes are expressed as grams and percent of the initial body weight (on Day 1, when treatments began)."}, "[3]": {"settings": "Day 1, Magel2 (−/+) heterozygous male mice"}, "[4]": {"settings": "Day 1, Magel2 (−/−) homozygous female mice"}, "[5]": {"settings": "Day 2, Magel2 (−/+) heterozygous male mice"}, "[6]": {"settings": "Day 2, Magel2 (−/−) homozygous female mice"}, "[7]": {"settings": "Day 4, Magel2 (−/+) heterozygous male mice"}, "[8]": {"settings": "Day 4, Magel2 (−/−) homozygous female mice"}, "[9]": {"settings": "Day 6, Magel2 (−/+) heterozygous male mice"}, "[10]": {"settings": "Day 6, Magel2 (−/−) homozygous female mice"}, "[11]": {"settings": "Day 8, Magel2 (−/+) heterozygous male mice"}, "[12]": {"settings": "Day 8, Magel2 (−/−) homozygous female mice"}, "[13]": {"settings": "Day 10, Magel2 (−/+) heterozygous male mice"}, "[14]": {"settings": "Day 10, Magel2 (−/−) homozygous female mice"}, "[15]": {"settings": "Day 11, Magel2 (−/+) heterozygous male mice"}}, "note": "Where “and” joins values, the source holds several entries; their conditions need not be identical. Equal values may be shown once."}
{"compound": "CC1=C(O)C(=O)C=C2C1=CC=C1[C@@]2(C)CC[C@@]2(C)[C@@H]3C[C@](C)(C(=O)O)CC[C@]3(C)CC[C@]12C", "note": "[Celastrol]", "values": [{"measurement": "Body weights (expressed as a percentage of day-1 weight)", "setting": "[1]; Day 1", "value": 100.0, "unit": "%"}, {"measurement": "Body weights (in grams)", "setting": "[1]; Day 1", "value": "44.8 grams and 45.4 grams"}, {"measurement": "Body weights (expressed as a percentage of day-1 weight)", "setting": "[1]; Day 2", "value": 98.6, "unit": "%"}, {"measurement": "Body weights (in grams)", "setting": "[1]; Day 2", "value": 44.8, "unit": "grams"}, {"measurement": "Body weights (expressed as a percentage of day-1 weight)", "setting": "[1]; Day 3", "value": 95.8, "unit": "%"}, {"measurement": "Body weights (in grams)", "setting": "[1]; Day 3", "value": 43.5, "unit": "grams"}, {"measurement": "Body weights (expressed as a percentage of day-1 weight)", "setting": "[1]; Day 4", "value": 92.8, "unit": "%"}, {"measurement": "Body weights (in grams)", "setting": "[1]; Day 4", "value": 42.2, "unit": "grams"}, {"measurement": "Body weights (expressed as a percentage of day-1 weight)", "setting": "[1]; Day 5", "value": 89.6, "unit": "%"}, {"measurement": "Body weights (in grams)", "setting": "[1]; Day 5", "value": 40.7, "unit": "grams"}, {"measurement": "Body weights (expressed as a percentage of day-1 weight)", "setting": "[1]; Day 6", "value": 86.2, "unit": "%"}, {"measurement": "Body weights (in grams)", "setting": "[1]; Day 6", "value": 39.2, "unit": "grams"}, {"measurement": "Body weights (expressed as a percentage of day-1 weight)", "setting": "[1]; Day 7", "value": 83.8, "unit": "%"}, {"measurement": "Body weights (in grams)", "setting": "[1]; Day 7", "value": 38.1, "unit": "grams"}, {"measurement": "Body weights (expressed as a percentage of day-1 weight)", "setting": "[1]; Day 8", "value": 81.3, "unit": "%"}, {"measurement": "Body weights (in grams)", "setting": "[1]; Day 8", "value": 37.0, "unit": "grams"}, {"measurement": "Body weights (expressed as a percentage of day-1 weight)", "setting": "[1]; Day 9", "value": 79.2, "unit": "%"}, {"measurement": "Body weights (in grams)", "setting": "[1]; Day 9", "value": 36.0, "unit": "grams"}, {"measurement": "Body weights (expressed as a percentage of day-1 weight)", "setting": "[1]; Day 10", "value": 76.5, "unit": "%"}, {"measurement": "Body weights (in grams)", "setting": "[1]; Day 10", "value": 34.8, "unit": "grams"}, {"measurement": "Body weights (expressed as a percentage of day-1 weight)", "setting": "[1]; Day 11", "value": 73.9, "unit": "%"}, {"measurement": "Body weights (in grams)", "setting": "[1]; Day 11", "value": 33.6, "unit": "grams"}, {"measurement": "Body weights (expressed as a percentage of day-1 weight)", "setting": "[1]; Day 12", "value": 72.2, "unit": "%"}, {"measurement": "Body weights (in grams)", "setting": "[1]; Day 12", "value": 32.8, "unit": "grams"}, {"measurement": "Body weights (expressed as a percentage of day-1 weight)", "setting": "[1]; Day 13", "value": 71.1, "unit": "%"}, {"measurement": "Body weights (in grams)", "setting": "[1]; Day 13", "value": 32.3, "unit": "grams"}, {"measurement": "Body weights (expressed as a percentage of day-1 weight)", "setting": "[1]; Day 14", "value": 70.1, "unit": "%"}, {"measurement": "Body weights (in grams)", "setting": "[1]; Day 14", "value": 31.9, "unit": "grams"}, {"measurement": "Body weights (expressed as a percentage of day-1 weight)", "setting": "[1]; Day 15", "value": 69.2, "unit": "%"}, {"measurement": "Body weights (in grams)", "setting": "[1]; Day 15", "value": 31.4, "unit": "grams"}, {"measurement": "body weight lost (percentage of day 1 body weight)", "setting": "[1]; at day 15, Beloranib 0.3 mg/kg SC, vehicle-treated mice lost 15.5%", "value": 30.8, "unit": "%"}, {"measurement": "Body weights (expressed as a percentage of day-1 weight)", "setting": "[2]; [3]", "value": 100.0, "unit": "%"}, {"measurement": "Body weights (in grams)", "setting": "[2]; [3]", "value": 26.6, "unit": "grams"}, {"measurement": "Body weights (expressed as a percentage of day-1 weight)", "setting": "[2]; [4]", "value": 100.0, "unit": "%"}, {"measurement": "Body weights (in grams)", "setting": "[2]; [4]", "value": 20.5, "unit": "grams"}, {"measurement": "Body weights (expressed as a percentage of day-1 weight)", "setting": "[2]; [5]", "value": 99.6, "unit": "%"}, {"measurement": "Body weights (in grams)", "setting": "[2]; [5]", "value": 26.5, "unit": "grams"}, {"measurement": "Body weights (expressed as a percentage of day-1 weight)", "setting": "[2]; [6]", "value": 101.2, "unit": "%"}, {"measurement": "Body weights (in grams)", "setting": "[2]; [6]", "value": 20.8, "unit": "grams"}, {"measurement": "Body weights (expressed as a percentage of day-1 weight)", "setting": "[2]; [7]", "value": 101.1, "unit": "%"}, {"measurement": "Body weights (in grams)", "setting": "[2]; [7]", "value": 26.9, "unit": "grams"}, {"measurement": "Body weights (expressed as a percentage of day-1 weight)", "setting": "[2]; [8]", "value": 105.6, "unit": "%"}, {"measurement": "Body weights (in grams)", "setting": "[2]; [8]", "value": 21.7, "unit": "grams"}, {"measurement": "Body weights (expressed as a percentage of day-1 weight)", "setting": "[2]; [9]", "value": 99.4, "unit": "%"}, {"measurement": "Body weights (in grams)", "setting": "[2]; [9]", "value": 26.4, "unit": "grams"}, {"measurement": "Body weights (expressed as a percentage of day-1 weight)", "setting": "[2]; [10]", "value": 107.1, "unit": "%"}, {"measurement": "Body weights (in grams)", "setting": "[2]; [10]", "value": 22.0, "unit": "grams"}, {"measurement": "Body weights (expressed as a percentage of day-1 weight)", "setting": "[2]; [11]", "value": 101.3, "unit": "%"}, {"measurement": "Body weights (in grams)", "setting": "[2]; [11]", "value": 26.9, "unit": "grams"}, {"measurement": "Body weights (expressed as a percentage of day-1 weight)", "setting": "[2]; [12]", "value": 106.2, "unit": "%"}, {"measurement": "Body weights (in grams)", "setting": "[2]; [12]", "value": 21.8, "unit": "grams"}, {"measurement": "Body weights (expressed as a percentage of day-1 weight)", "setting": "[2]; [13]", "value": 96.4, "unit": "%"}, {"measurement": "Body weights (in grams)", "setting": "[2]; [13]", "value": 25.6, "unit": "grams"}, {"measurement": "Body weights (expressed as a percentage of day-1 weight)", "setting": "[2]; [14]", "value": 100.9, "unit": "%"}, {"measurement": "Body weights (in grams)", "setting": "[2]; [14]", "value": 20.7, "unit": "grams"}, {"measurement": "Body weights (expressed as a percentage of day-1 weight)", "setting": "[2]; [15]", "value": 94.4, "unit": "%"}, {"measurement": "Body weights (in grams)", "setting": "[2]; [15]", "value": 25.1, "unit": "grams"}, {"measurement": "Body weights (expressed as a percentage of day-1 weight)", "setting": "[2]; Day 11, Magel2 (−/−) homozygous female mice", "value": 95.6, "unit": "%"}]}
